These results are taken from ChEMBL document CHEMBL5241090, “A comprehensive overview of β-carbolines and its derivatives as anticancer agents” (Eur J Med Chem, 2021).

One may read the IC50 as the concentration at which inhibition is half-maximal.

The structures appear in SMILES notation. In brackets after ≈: the same amount, converted by molar mass. Bounds are passed on as bounds.

One assay concerns 1A9. Briefly: Cytotoxicity against human 1A9 cells by SRB assay. It counts as functional, cell-based. (In SRB staining, fixed cells bind dye roughly in proportion to their protein.)
Assay [1] relates to KB. Briefly: Cytotoxicity against human KB cells by SRB assay. Format: functional, cell-based.
The test system of the next assay is SAOS-2. The experiment in a line: Cytotoxicity against human SAOS-2 cells by SRB assay. It counts as functional, cell-based.
Assay [2] relates to A549. Briefly: Cytotoxicity against human A549 cells by SRB assay. Format: functional, cell-based.
A further assay deals with SK-MEL-2. The experiment in a line: Cytotoxicity against human SK-MEL-2 cells by SRB assay. It counts as functional, cell-based.
The nature of assay [3]: Cytotoxicity against human U-87 MG cells by SRB assay. Format: functional, cell-based, U-87MG ATCC.
The test system of assay [4] is MCF7. The experiment in a line: Cytotoxicity against human MCF7 cells by SRB assay. It counts as functional, cell-based.
The subject of assay [5] is KB. The experiment in a line: Cytotoxicity against human KB cells. It counts as functional, cell-based.
Assay [6] relates to LoVo. The experiment in a line: Cytotoxicity against human LoVo cells. Format: functional, cell-based.
For assay [7], the system named is LoVo. Briefly: Cytotoxicity against human LoVo cells by MTT assay. It counts as functional.
The next assay has as its system Huh-7. The experiment in a line: Cytotoxicity against human Huh-7 cells. It counts as functional, cell-based.
The subject of assay [8] is MCF7. The experiment in a line: Cytotoxicity against human MCF7 cells. Format: functional, cell-based.
Assay [9] has as its system HCT-116. Briefly: Cytotoxicity against human HCT-116 cells. Format: functional, cell-based.
In assay [10] the test system is NCI-H460. The experiment in a line: Antiproliferative activity against human NCI-H460 cells assessed as cell viability incubated for 24 hrs by MTT assay. Format: functional, cell-based. The following applies: NCI-H460, 24 h. On the technique in general: Formazan colour is commonly taken as a measure of viable cells.
Assay [11] concerns NCI-H460. The experiment in a line: Antiproliferative activity against human NCI-H460 cells assessed as cell viability incubated for 48 hrs by MTT assay. Format: functional, cell-based. Conditions: NCI-H460, 48 h.
In assay [12] the test system is T47D. The experiment in a line: Antiproliferative activity against human T47D cells assessed as cell viability incubated for 24 hrs by MTT assay. It counts as functional, cell-based.
The test system of assay [13] is T47D. The experiment in a line: Antiproliferative activity against human T47D cells assessed as cell viability incubated for 48 hrs by MTT assay. It counts as functional, cell-based.
Assay [14] relates to HCT-116. Briefly: Antiproliferative activity against human HCT-116 cells assessed as cell viability incubated for 24 hrs by MTT assay. Format: functional, cell-based. The following applies: HCT-116, 24 h.
For assay [15], the system named is HeLa. The experiment in a line: Cytotoxicity against human HeLa cells measured after 48 hrs by MTT assay. It counts as functional, cell-based.
The next assay relates to HGC-27. Briefly: Cytotoxicity against human HGC-27 cells measured after 48 hrs by MTT assay. Conditions: HGC-27, 48 h. Format: functional, cell-based.
In assay [16] the test system is MCF7. The experiment in a line: Cytotoxicity against human MCF7 cells measured after 48 hrs by MTT assay. It counts as functional, cell-based. The following applies: MCF7, 48 h.
In the next assay the test system is PC-3. Briefly: Cytotoxicity against human PC-3 cells measured after 48 hrs by MTT assay. Format: functional, cell-based. The following applies: PC-3, 48 h.
Assay [17] relates to HeLa. The experiment in a line: Cytotoxicity against human HeLa cells assessed as cell viability incubated for 1 hr by spectrophotometry. Format: functional, cell-based.
The test system of assay [18] is HepG2. Briefly: Cytotoxicity against human HepG2 cells assessed as cell viability incubated for 1 hr by spectrophotometry. It counts as functional, cell-based. Conditions: HepG2, 1 h.
The test system of a further assay is Bel-7402. Briefly: Cytotoxicity against human Bel-7402 cells assessed as cell viability incubated for 1 hr by spectrophotometry. It counts as functional, cell-based. The following applies: Bel-7402, 1 h.
The next assay concerns BGC-823. Briefly: Cytotoxicity against human BGC-823 cells assessed as cell viability incubated for 1 hr by spectrophotometry. It counts as functional, cell-based. The following applies: BGC-823, 1 h.
For assay [19], the system named is KB. The experiment in a line: Cytotoxicity against human KB cells assessed as cell viability incubated for 1 hr by spectrophotometry. Format: functional, cell-based.
The subject of assay [20] is LoVo. The experiment in a line: Cytotoxicity against human LoVo cells assessed as cell viability incubated for 1 hr by spectrophotometry. Format: functional, cell-based.
Assay [21] deals with A549. Briefly: Cytotoxicity against human A549 cells assessed as cell viability incubated for 1 hr by spectrophotometry. It counts as functional, cell-based. The following applies: A549, 1 h.
A further assay deals with A-375. The experiment in a line: Cytotoxicity against human A-375 cells assessed as cell viability incubated for 1 hr by spectrophotometry. It counts as functional, cell-based. The following applies: A-375, 1 h.
In the next assay the test system is 786-0. The experiment in a line: Cytotoxicity against human 786-0 cells assessed as cell viability incubated for 1 hr by spectrophotometry. It counts as functional, cell-based. Conditions: 786-0, 1 h.
The test system of a further assay is HT-29. The experiment in a line: Cytotoxicity against human HT-29 cells assessed as cell viability incubated for 1 hr by spectrophotometry. It counts as functional, cell-based. Conditions: HT-29, 1 h.
In a further assay the test system is 769-P. Briefly: Cytotoxicity against human 769-P cells assessed as cell viability incubated for 1 hr by spectrophotometry. Format: functional, cell-based.
The next assay concerns HL-60. Briefly: Cytotoxicity against human HL-60 cells. It counts as functional, cell-based. The following applies: hl-60.
Assay [22] in a line: Cytotoxicity against human BGC cells. It counts as functional, cell-based.
The subject of the next assay is NCI-H187. The experiment in a line: Cytotoxicity against human NCI-H187 cells. Format: functional, cell-based.
The test system of assay [23] is MCF7. Briefly: Cytotoxicity against human MCF7 cells measured after 24 hrs by MTT assay. Format: functional, cell-based. Conditions: MCF7, 24 h.
Assay [24] has as its system A549. The experiment in a line: Cytotoxicity against human A549 cells measured after 24 hrs by MTT assay. It counts as functional, cell-based. Conditions: A549, 24 h.
For a further assay, the system named is A2780. The experiment in a line: Cytotoxicity against human A2780 cells measured after 24 hrs by MTT assay. Format: functional, cell-based. Conditions: A2780, 24 h.
The subject of another assay is COLO 205. Briefly: Cytotoxicity against human COLO 205 cells measured after 24 hrs by MTT assay. Format: functional, cell-based. Conditions: COLO 205, 24 h.
The subject of assay [25] is HeLa. The experiment in a line: Cytotoxicity against human HeLa cells. Format: functional, cell-based.
A further assay has as its system Hep 3B2. The experiment in a line: Cytotoxicity against human Hep3B cells. Format: functional, cell-based.
The next assay deals with CNE. The experiment in a line: Cytotoxicity against human CNE-1 cells incubated for 72 hrs by MTT assay. Format: functional, cell-based.
The test system of another assay is CNE-2. Briefly: Cytotoxicity against human CNE-2 cells incubated for 72 hrs by MTT assay. Format: functional, cell-based. The following applies: CNE-2, 72 h.
In another assay the test system is HONE1 cell line. The experiment in a line: Cytotoxicity against human HONE1 cell line incubated for 72 hrs by MTT assay. Format: functional, cell-based. Conditions: HONE1, 72 h.
In a further assay the test system is SUNE1. Briefly: Cytotoxicity against human SUNE1 cells incubated for 72 hrs by MTT assay. Format: functional, cell-based. The following applies: SUNE1, 72 h.
Assay [26] has as its system HepG2. Briefly: Cytotoxicity against human HepG2 cells incubated for 72 hrs by MTT assay. It counts as functional, cell-based. Conditions: HepG2, 72 h.
A short description of assay [27]: Cytotoxicity against human QGY-7701 cells incubated for 72 hrs by MTT assay. Format: functional, cell-based. Conditions: QGY7701, 72 h.
A further assay deals with MG-63. The experiment in a line: Cytotoxicity against human MG-63 cells. Format: functional, cell-based.
Assay [28] relates to MCF7. Briefly: Cytotoxicity against human MCF7 cells by MTT assay. It counts as functional, cell-based.

For `COc1ccc2c(c1)[nH]c1c(/C=C/c3ccc([N+](=O)[O-])cc3)nccc12`, the IC50 (in the assay with 1A9; with KB [1]; in the assay on SAOS-2; in the assay with A549 [2]; in the assay with SK-MEL-2; in [3]) was 0.3 µg/mL (≈ 0.869 µM) in each case. For the same compound, the IC50 in the assay with MCF7 [4] worked out at 0.3 µg/mL (≈ 0.869 µM).

With `Oc1cccc2c1[nH]c1c(C3=C[C@@]4(O)CC/C=C\CCCCN5CC[C@@H]3[C@]3(C[C@@H]6/C=C\CCCCN6[C@H]34)C5)nccc12`, the IC50 was found to be 0.3 µg/mL with KB [5] (Homo sapiens, KB, read-out: IC50) and 0.26 µg/mL (≈ 0.46 µM) in the assay with LoVo [6].

`CCCCn1c2ccccc2c2cc(C(=O)O)ncc21` registered an IC5 with LoVo [7] of 11 µM.

Turning to `Cc1ccc(-c2nc(NCc3ccc(C(=O)NO)cc3)cc3c2[nH]c2ccccc23)cc1`, the IC50 in the assay with Huh-7, in the assay with MCF7 [8] and in the assay on HCT-116 [9] was 0.53 µM each time.

For the compound `Cc1nccc2c3ccccc3n(CCCCn3c4ccccc4c4ccnc(C)c43)c12`, the half-maximal inhibitory concentration (IC50) is 10.9 µM with NCI-H460 [10]; 9.58 µM in the assay on NCI-H460 [11]; 9.88 µM in the assay on T47D [12]; 8.22 µM in the assay on T47D [13]; 5.09 µM in the assay on HCT-116 [14].

Regarding `COc1ccc(-c2nc(Cn3cc(CN4C(=O)c5cccc6cccc(c56)C4=O)nn3)cc3c2[nH]c2ccccc23)cc1OC`, the IC50 in the assay on HeLa [15], in the assay with HGC-27, with MCF7 [16] and with PC-3 was 7.46 µM each time.

In the case of `COc1ccc(/C=C/c2c3c(cc[n+]2Cc2ccccc2)c2ccccc2n3CCCc2ccccc2)cc1`, the IC50 with HeLa [17], in the assay on HepG2 [18], with Bel-7402, with BGC-823, with KB [19] and in the assay on LoVo [20] was under 5 µM in each case. Moreover, the IC50 in the assay on A549 [21], in the assay with A-375, with 786-0, in the assay on HT-29 and in the assay on 769-P was under 5 µM in each case.

Consider `NCCCCNC(=O)c1cc2c(cn1)[nH]c1ccccc12`, for which the IC50 (with KB [5] (kb); in the assay with HL-60; in assay [22]) was 8.6 µM throughout.

`C[C@H](O)c1nc(O)cc2c1[nH]c1ccccc12` came in with an IC50 in the assay on NCI-H187 of 79.9 µM.

`COc1ccc(C(=O)n2c3ccccc3c3ccnc(-c4cc(-c5ccc(-c6nc7ccccc7s6)cc5)no4)c32)c(OC)c1OC`: the IC50 in the assay on MCF7 [23] is 0.1 µM; with A549 [24], 0.14 µM; in the assay on A2780, 0.19 µM; in the assay with COLO 205 it was 0.64 µM.

With `CCCCCCCCCCCCCCCCCCCCCCCC(=O)N1CCc2c([nH]c3ccc(O)cc23)[C@H]1Cc1ccc(O)cc1`, the IC50 in the assay on MCF7 [8], in the assay with HeLa [25] and in the assay on Hep 3B2 was under 2 µM throughout.

As for `O=C(c1nccc2c1[nH]c1ccccc12)[C@@H](O)CCCO`, the IC50 with CNE is 16.3 µM; with CNE-2, 20.6 µM; with HONE1 cell line, 20.1 µM; in the assay with SUNE1, 45.3 µM; in the assay on HepG2 [26] it was 50.9 µM; in assay [27], 29 µM.

`O=C(c1cc2c([nH]c3ccccc32)c(-c2ccccc2)n1)N1CCN(S(=O)(=O)c2ccc(Cl)cc2)CC1` yielded an IC50 in the assay with MG-63 of 2.8 µM.

Turning to `COc1ccc2c3ccnc(C)c3n(CC3CC(c4ccccc4)=NO3)c2c1` (configuration not stated), the IC50 with MCF7 [28] was 0.8 µM.
